# According to PubChem BioAssay AID2060332 (Molecular Pharmacology Branch, DTP, NCI, 2025):
# Tested on: LG0567-F671-PDC multi-cell spheroid viability
# Assay: Anticancer human tumor LG0567-F671-PDC patient-derived lung adenocarcinoma cell line growth inhibition [IpAb]
# Conditions: for IC50: curve of first compound; for viability, T/C: stronger effect = lower value
# In short: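 Combinations with ipatasertib or abemaciclib were tested on tumour spheroids holding HUVEC (25%) and MSC (15%) alongside 60% malignant cells. Top concentration was at or near clinical Cmax (10 microM if undefined), descending in half-log steps.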
# 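Further: viability read after 7 days of drug exposure.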
# 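Wherever viability, T/C is given: 100% = DMSO vehicle control luminescence.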
compound,measurement,setting,value
CC(C)(C)c1cnc(CSc2cnc(NC(=O)C3CCNCC3)s2)o1 + CCN1CCN(Cc2ccc(Nc3ncc(F)c(-c4cc(F)c5nc(C)n(C(C)C)c5c4)n3)nc2)CC1,IC50,second compound 0.01 µM,152 nM
same,IC50,second compound 0.0316 µM,129 nM
same,IC50,second compound 0.1 µM,106 nM
same,IC50,second compound 0.316 µM,74.2 nM
same,IC50,second compound 1 µM,52.5 nM
same,"viability, T/C","second compound 0.01 µM, first compound 0.00949 µM",108%
same,"viability, T/C","second compound 0.01 µM, first compound 0.03 µM",118%
same,"viability, T/C","second compound 0.01 µM, first compound 0.0949 µM",82.8%
same,"viability, T/C","second compound 0.01 µM, first compound 0.3 µM",3.32%
same,"viability, T/C","second compound 0.01 µM, first compound 0.949 µM",1.33%
same,"viability, T/C","second compound 0.01 µM, first compound 3 µM",0.84%
same,"viability, T/C","second compound 0.0316 µM, first compound 0.00949 µM",86.5%
same,"viability, T/C","second compound 0.0316 µM, first compound 0.03 µM",92.3%
same,"viability, T/C","second compound 0.0316 µM, first compound 0.0949 µM",66.8%
same,"viability, T/C","second compound 0.0316 µM, first compound 0.3 µM",4.66%
same,"viability, T/C","second compound 0.0316 µM, first compound 0.949 µM",1.42%
same,"viability, T/C","second compound 0.0316 µM, first compound 3 µM",0.84%
same,"viability, T/C","second compound 0.1 µM, first compound 0.00949 µM",62.2%
same,"viability, T/C","second compound 0.1 µM, first compound 0.03 µM",81.8%
same,"viability, T/C","second compound 0.1 µM, first compound 0.0949 µM",55.4%
same,"viability, T/C","second compound 0.1 µM, first compound 0.3 µM",2.56%
same,"viability, T/C","second compound 0.1 µM, first compound 0.949 µM",1.28%
same,"viability, T/C","second compound 0.1 µM, first compound 3 µM",0.81%
same,"viability, T/C","second compound 0.316 µM, first compound 0.00949 µM",56%
same,"viability, T/C","second compound 0.316 µM, first compound 0.03 µM",73.7%
same,"viability, T/C","second compound 0.316 µM, first compound 0.0949 µM",45.9%
same,"viability, T/C","second compound 0.316 µM, first compound 0.3 µM",3.08%
same,"viability, T/C","second compound 0.316 µM, first compound 0.949 µM",1.56%
same,"viability, T/C","second compound 0.316 µM, first compound 3 µM",1.05%
same,"viability, T/C","second compound 1 µM, first compound 0.00949 µM",58.5%
same,"viability, T/C","second compound 1 µM, first compound 0.03 µM",66%
same,"viability, T/C","second compound 1 µM, first compound 0.0949 µM",37%
same,"viability, T/C","second compound 1 µM, first compound 0.3 µM",4.69%
same,"viability, T/C","second compound 1 µM, first compound 0.949 µM",2.05%
same,"viability, T/C","second compound 1 µM, first compound 3 µM",1.1%
Cn1ncnc1[C@H]1c2n[nH]c(=O)c3cc(F)cc(c23)N[C@@H]1c1ccc(F)cc1 + CCN1CCN(Cc2ccc(Nc3ncc(F)c(-c4cc(F)c5nc(C)n(C(C)C)c5c4)n3)nc2)CC1,IC50,second compound 0.01 µM,71.7 nM
same,IC50,second compound 0.0316 µM,18.2 nM
same,IC50,second compound 0.1 µM,11.2 nM
same,IC50,second compound 0.316 µM,22 nM
same,IC50,second compound 1 µM,5.45 nM
same,"viability, T/C","second compound 0.01 µM, first compound 0.000316 µM",94.2%
same,"viability, T/C","second compound 0.01 µM, first compound 0.001 µM",89.6%
same,"viability, T/C","second compound 0.01 µM, first compound 0.00316 µM",64.2%
same,"viability, T/C","second compound 0.01 µM, first compound 0.01 µM",76.7%
same,"viability, T/C","second compound 0.01 µM, first compound 0.0316 µM",64.9%
same,"viability, T/C","second compound 0.01 µM, first compound 0.1 µM",40.9%
same,"viability, T/C","second compound 0.0316 µM, first compound 0.000316 µM",64%
same,"viability, T/C","second compound 0.0316 µM, first compound 0.001 µM",81.5%
same,"viability, T/C","second compound 0.0316 µM, first compound 0.00316 µM",69.3%
same,"viability, T/C","second compound 0.0316 µM, first compound 0.01 µM",46.1%
same,"viability, T/C","second compound 0.0316 µM, first compound 0.0316 µM",49.8%
same,"viability, T/C","second compound 0.0316 µM, first compound 0.1 µM",24.7%
same,"viability, T/C","second compound 0.1 µM, first compound 0.000316 µM",63.2%
same,"viability, T/C","second compound 0.1 µM, first compound 0.001 µM",75.8%
same,"viability, T/C","second compound 0.1 µM, first compound 0.00316 µM",63.1%
same,"viability, T/C","second compound 0.1 µM, first compound 0.01 µM",52.8%
same,"viability, T/C","second compound 0.1 µM, first compound 0.0316 µM",29.8%
same,"viability, T/C","second compound 0.1 µM, first compound 0.1 µM",30.4%
same,"viability, T/C","second compound 0.316 µM, first compound 0.000316 µM",63.5%
same,"viability, T/C","second compound 0.316 µM, first compound 0.001 µM",72.2%
same,"viability, T/C","second compound 0.316 µM, first compound 0.00316 µM",66.5%
same,"viability, T/C","second compound 0.316 µM, first compound 0.01 µM",52.1%
same,"viability, T/C","second compound 0.316 µM, first compound 0.0316 µM",49.2%
same,"viability, T/C","second compound 0.316 µM, first compound 0.1 µM",30%
same,"viability, T/C","second compound 1 µM, first compound 0.000316 µM",61.9%
same,"viability, T/C","second compound 1 µM, first compound 0.001 µM",67.4%
same,"viability, T/C","second compound 1 µM, first compound 0.00316 µM",56.1%
same,"viability, T/C","second compound 1 µM, first compound 0.01 µM",43.3%
same,"viability, T/C","second compound 1 µM, first compound 0.0316 µM",32.8%
same,"viability, T/C","second compound 1 µM, first compound 0.1 µM",40.3%
